One data set deals with calvaria. The data set can be described thus: Cytotoxicity test (MTT), calvaria. It is filed as cell-based. The following applies: 10^−6M, 72 hrs, in comparison with the control group. On the procedure: (§1) The cytotoxic effect of the benzamidine derivative of the present invention was evaluated by carrying out the experiment described below.
(§2) The test substance was diluted in an appropriate solvent at a 10^−2 M concentration. This substance was diluted in an appropriate culture medium for the cells used in the cytotoxicity test to a concentration of […], and loaded into a 96-well plate in 100 μl per well. The cell lines to be used in the cytotoxicity test were plated on a 96-well plate in a dose of 1.0×10^4 cells/1OO μl per well and cultured for 72 hrs. 25 μl of MTT [3-(4,5-dimethyl-2-thiazolyl)-2,5-diphenyl-2H-tetrazolium bromide] dissolved in PBS (2 mg/mL) were added before 4 hrs of the end of culture. After completion of the reaction, the plates were centrifuged, the medium was discarded and 100 μl of DMSO was added to dissolve formazan. Finally, the absorbance of the developed plates was measured at 540 nm. The survival rates of the cells were expressed as % concentration values in comparison with the control group.

The subject of data set [1] is osteoclast differentiation. As to the kind of experiment: Inhibitory effect on osteoclast differentiation, co-culture of bone marrow cells and osteoblast, TRAP staining. Format: cell-based, mouse. The following applies: for inhibition at 1 µM: Mus musculus, Osteoclast, 168 h, read-out: inhibitory effect on osteoclast differentiation(%). On the procedure:
The effect of the benzamidine derivative of the present invention on osteoclast formation and differentiation process was evaluated via co-culture with an osteoblast.
Tibia was aseptically ectomized from male 6 to 8-week-old ddY mice to harvest bone marrow cells by using a syringe (21G, Korea Green Cross). The bone marrow cells were suspended in 5 mL of an α-MEM medium (Gibco BRL Co., added with sodium bicarbonate (2.0 g/L), streptomycin (100 mg/L) and penicillin ([…]), filtered and then sterilized). The harvested cells were centrifuged at 600×g for 5 mins to collect the whole quantity. To remove the red blood cells in the bone marrow cells, 3 mL of Tris HCl (0.83% NH4Cl, pH 7.5) was added and well mixed. After centrifuging above cells, the numbers of the eukaryotic cells in the harvested bone marrow cells were counted and then immediately used for a co-culture system.
The progenitor bone and the parietal bone were aseptically ectomized from 1 to 2-day-old neonate ICR mice, washed with a phosphate butter solution (PBS) and treated with a mixed enzyme solution (of 0.2% collagenase and 0.1% dispase) sequentially (10, 10, 10, 20, 20 and 20 min), and then 3 to 6 groups of the cells which comprise lot of cells having the characteristics of the osteoblast were intensively collected and washed with a medium (a serum-free α-MEM). The washed cells were cultured in the α-MEM medium containing 10% FBS for 2 to 3 days. After subculturing, the collected cells were used for this experiment, and diluted to a concentration of 1×10^6 cells/mL for storage at −70[…].
The benzamidine derivative of the present invention was dissolved in a sterile distilled water or ethanol to dilute to a desired concentration. The final volume of the sample added to the cell culture medium was set at a ratio of 1:1000.
The bone marrow cells prepared in the above 1-1 and the osteoblast were co-cultured for osteoclast differentiation. Both the bone marrow cells (25,000 cells/cm^2) and the osteoblast (10,000 cells/cm^2) were plated in a 96-well plate using α-MEM medium containing FBS, and then cultured with the samples to be tested for 7 days. Differentiation factors, such as dexamethasone (10^−7 M) and vitamin D3 (10^−8 M), were also co-added to the medium from the first day of cultivation. The medium was changed with a fresh media containing a mixture of the samples and the differentiation factors every 2 to 3 days.
TRAP was used as a marker to measure the matured osteoclast in consideration of its characteristics showing a positive reaction to a TRAP staining solution. The TRAP staining solution was prepared in such the manner that 5 mg of naphtol AS-MS phosphate (sigma N-4875) as a substrate, and 25 mg of a coloring agent (Fast Red Violet LB salt) were dissolved in N,N-dimethylformamide (about 0.5 mL). 50 ml of a 0.1 N NaHCO3 buffer solution containing 50 mM tartaric acid (pH 5.0) was added thereto, and the mixture was stored at a refrigerator prior to use as a staining solution.
After culturing the cells for 7 days, the medium was removed from the wells, the cells were once washed with PBS, and then fixed with PBS containing 10% formalin for 2 to 5 min. The cells were fixed again in a mixed solution of ethanol and acetone (1/1) for about 1 min, and dried off. The cells were further treated by the TRAP staining solution for 15 mins and washed with water and dried off. The osteoclasts with 3 or more nuclei showing a TRAP-positive reaction were counted under a microscopic examination. Each of tests was confirmed over at least three times. The inhibitory effect on osteoclast differentiation of each experimental group, relative to negative controls, was expressed as a percentage (%).

In another data set the test system is HOS. As to the kind of experiment: Cytotoxicity test (MTT), HOS. The following applies: 10^−6M, 72 hrs, in comparison with the control group. It is filed as cell-based. On the procedure: as §1, §2
The next data set relates to MC3T3. As to the kind of experiment: Cytotoxicity test (MTT), MC3T3. It is filed as cell-based. The settings on record: 10^−6M, 72 hrs, in comparison with the control group. On the procedure: as §1, §2
[2] abbreviates: 1 μm, 7 days co-culture, TRAP-positive osteoclasts with 3 or more nuclei, relative to negative controls.

The record followed here is US7943646B2, “Benzamidine derivative, process for the preparation thereof and pharmaceutical composition comprising same” (Dong Wha Pharmaceutical Co., Ltd., priority 2006, dated 2011).

Structures are written as SMILES. Where two headings read alike, the source gives them in different places.

Regarding `N=C(NO)c1ccc(OCCCCCOc2ccc(-c3nc(C4CCCCC4)sc3CCNCCN3CCOCC3)cc2)cc1` [Example 35, N-hydroxy-4-[5-(4-{2-cyclohexyl-5-[2-(2-morpholin-4-yl-ethylamino)-ethyl]-thiazol-4-yl}-phenoxy)-pentyloxy]-benzamidine], the “survival rates of the cells” value in the data set on calvaria is 81.6%; with HOS it was 115.7%; in the data set on MC3T3 it was 98.6%. Also, the inhibition at 1 µM in data set [1] is 100%.

Consider `CN(C)CCc1sc(C2CCCCC2)nc1-c1ccc(OCCCCCOc2ccc(C(=N)NO)cc2)cc1` [Example 37, N-hydroxy-4-(5-{4-[2-cyclohexyl-5-(2-dimethylamino-ethyl)-thiazol-4-yl]-phenoxy}-pentyloxy)-benzamidine], for which the “survival rates of the cells” value is given as 84.7% in the data set on calvaria, 116.7% with HOS and 94.9% with MC3T3. Also, the inhibition at 1 µM in data set [1] (setting [2]) came out at 100%.

On to `CCCN(CCC)CCc1sc(C2CCCCC2)nc1-c1ccc(OCCCCCOc2ccc(C(=N)NO)cc2)cc1` [Example 38, N-hydroxy-4-(5-{4-[2-cyclohexyl-5-(2-dipropylamino-ethyl)-thiazol-4-yl]-phenoxy}-pentyloxy)-benzamidine], for which the “survival rates of the cells” value was determined as 94.9% in the data set on calvaria, 96.2% in the data set with HOS and 104.7% in the data set on MC3T3. The inhibition at 1 µM in data set [1] (setting [2]) is 100%.

With `N=C(NO)c1ccc(OCCCCCOc2ccc(-c3nc(C4CCCCC4)sc3CCNC3CC3)cc2)cc1` [Example 39, N-hydroxy-4-(5-{4-[2-cyclohexyl-5-(2-cyclopropylamino-ethyl)-thiazol-4-yl]-phenoxy}-pentyloxy)-benzamidine], the figures for the “survival rates of the cells” value in the data set on calvaria, in the data set with HOS and with MC3T3 were 93.1%, 111.0% and 85.0%, respectively. Further, in data set [1] (setting [2]), the inhibition at 1 µM is 100%.

For the molecule `N=C(NO)c1ccc(OCCCCCOc2ccc(-c3nc(N)sc3CCNCCN3CCOCC3)cc2)cc1` [Example 40, N-hydroxy-4-[5-(4-{2-amino-5-[2-(2-morpholin-4-yl-ethylamino)-ethyl]-thiazol-4-yl}-phenoxy)-pentyloxy]-benzamidine], the “survival rates of the cells” value in the data set on calvaria was 99.7%; in the data set on HOS, 103.2%; in the data set on MC3T3, 102.2%. The inhibition at 1 µM in data set [1] (setting [2]) was found to be 24.6%.

`N=C(NO)c1ccc(OCCCCCOc2ccc(-c3nc(-c4ccccc4)sc3CCN3CCOCC3)cc2)cc1` [Example 41, N-hydroxy-4-(5-{4-[5-(2-morpholin-4-yl-ethyl)-2-phenyl-thiazol-4-yl]-phenoxy}-pentloxy)-benzamidine]: the “survival rates of the cells” value in the data set on calvaria worked out at 78.6%; in the data set with HOS, 78.8%; in the data set on MC3T3 it was 85.9%. For the same molecule, the “inhibitory effect on osteoclast differentiation(%)” value in data set [1] (setting [2]) amounted to 100%.

Turning to `CCc1nc(-c2ccc(OCCCCCOc3ccc(C(=N)NO)cc3)cc2)c(CCN2CCOCC2)s1` [Example 42, N-hydroxy-4-(5-{4-[2-ethyl-5-(2-morpholin-4-yl-ethyl)-thiazol-4-yl]-phenoxy}-pentyloxy)-benzamidine], the “survival rates of the cells” value is recorded as 73.8% with calvaria, 98.9% in the data set with HOS and 81.5% in the data set with MC3T3. Also, the inhibition at 1 µM in data set [1] (setting [2]) is 100%.

As to `CCc1nc(-c2ccc(OCCCCCOc3ccc(C(=N)NO)cc3)cc2)c(CCN2CCSCC2)s1` [Example 43, N-hydroxy-4-(5-{4-[2-ethyl-5-(2-thiomorpholin-4-yl-ethyl)-thiazol-4-yl]-phenoxy}-pentyloxy)-benzamidine], the “survival rates of the cells” value with calvaria is 91.9%; in the data set on HOS, 80.4%; with MC3T3, 86.5%. The inhibition at 1 µM in data set [1] (setting [2]) came out at 97.7%.

Consider `Cc1nc(-c2ccc(OCCCCCOc3ccc(C(=N)N)cc3)cc2)c(CCN2CCOCC2)s1` [Example 46, 4-(5-{4-[2-methyl-5-(2-morpholin-4-yl-ethyl)-thiazol-4-yl]-phenoxy}-pentyloxy)-benzamidine], for which the “survival rates of the cells” value in the data set on calvaria is on record as 99.9%; in the data set with HOS, 94.1%; in the data set with MC3T3, 95.3%. The inhibition at 1 µM in data set [1] (setting [2]) amounted to 63.4%.

As for `CNc1nc(-c2ccc(OCCCCCOc3ccc(C(=N)NO)cc3)cc2)c(CCNCCN2CCOCC2)s1` [Example 50, N-hydroxy-4-[5-(4-{2-methylamino-5-[2-(2-morpholin-4-yl-ethylamino)-ethyl]-thiazol-4-yl}-phenoxy)-pentyloxy]-benzamidine], the figures for the “survival rates of the cells” value in the data set with calvaria, in the data set with HOS and in the data set with MC3T3 were 92.8%, 93.6% and 97.2%, respectively. Also, the inhibition at 1 µM in data set [1] (setting [2]) stood at 37%.

For `CNc1nc(-c2ccc(OCCCCCOc3ccc(C(=N)NO)cc3)cc2)c(CCNCCCn2ccnc2)s1` [Example 51, N-hydroxy-4-[5-(4-{5-[2-(3-imidazol-1-yl-propylamino)-ethyl]-2-methylamino-thiazol-4-yl}-phenoxy)-pentyloxy]-benzamidine], the “survival rates of the cells” value in the data set with calvaria stood at 91.7%; with HOS it was 99.6%; in the data set with MC3T3, 93.8%. Moreover, the inhibition at 1 µM in data set [1] (setting [2]) was 32%.

As for `N=C(NO)c1ccc(OCCCCCOc2ccc(-c3nc(N(CCN4CCOCC4)Cc4ccccc4)sc3CCN3CCOCC3)cc2)cc1` [Example 56, N-hydroxy-4-(5-{4-[2-[benzyl-(2-morpholin-4-yl-ethyl)-amino]-5-(2-morpholin-4-yl-ethyl)-thiazol-4-yl]-phenoxy}-pentyloxy)-benzamidine], the “survival rates of the cells” value is recorded as 84.0% in the data set on calvaria, 98.8% in the data set on HOS and 86.0% with MC3T3. For the same molecule, in data set [1] (setting [2]), the inhibition at 1 µM turned out to be 100%.

On to `CCN(CC)c1nc(-c2ccc(OCCCCCOc3ccc(C(=N)NO)cc3)cc2)c(CCN2CCOCC2)s1` [Example 57, N-hydroxy-4-(5-{4-[2-diethylamino-5-(2-morpholin-4-yl-ethyl)-thiazol-4-yl]-phenoxy}-pentyloxy)-benzamidine], for which the “survival rates of the cells” value in the data set with calvaria was 87.0%; with HOS, 90.7%; with MC3T3, 86.8%. Also, the inhibition at 1 µM in data set [1] (setting [2]) came to 100%.

Regarding `N=C(NO)c1ccc(OCCCCCOc2ccc(-c3nc(C4CCCCC4)sc3CCN(C(=O)c3cccnc3)C3CC3)cc2)cc1` [Example 68, N-hydroxy-4-{5-[4-(2-cyclohexyl-5-{2-[cyclopropyl-(pyridine-3-carbonyl)-amino]ethyl}-thiazol-4-yl)-phenoxy]-pentyloxy}-benzamidine], the “survival rates of the cells” value with calvaria was 91.4%; in the data set with HOS, 82.9%; with MC3T3, 90.3%.
